Laboratory results from ChEMBL document CHEMBL1140360, “Synthesis and biological activity of 3,4-dihydroquinazolines for selective T-type Ca2+ channel blockers” (Bioorg Med Chem Lett, 2005).
pIC50: −log10 of the molar value.

Key:
Assay type in all cases: cell-based
[1] = target: T1, Voltage-dependent T-type calcium channel subunit alpha-1G (Homo sapiens, UniProt O43497); test: Percent inhibition of T-type [Ca2+] channel (alpha1G) expressed in HEK293 cells at 10 uM
[2] = target: T1, Voltage-dependent T-type calcium channel subunit alpha-1G; test: Inhibition of T-type [Ca2+] channel (alpha1G) expressed in HEK293 cells
[3] = target: Voltage-dependent T-type calcium channel subunit alpha-1H (Homo sapiens) (UniProt O95180); test: Percent inhibition of T-type [Ca2+] channel (alpha1H) stably expressed in Xenopus oocytes at 100 uM; settings: Oocyte
[4] = target: Voltage-dependent N-type calcium channel subunit alpha-1B (Homo sapiens) (UniProt Q00975); test: Percent inhibition of N-type [Ca2+] channel (Alpha-1B) expressed in HEK293 cells at 10 uM
Sequence of Voltage-dependent N-type calcium channel subunit alpha-1B (Homo sapiens) (Q00975 whole entry, looked up): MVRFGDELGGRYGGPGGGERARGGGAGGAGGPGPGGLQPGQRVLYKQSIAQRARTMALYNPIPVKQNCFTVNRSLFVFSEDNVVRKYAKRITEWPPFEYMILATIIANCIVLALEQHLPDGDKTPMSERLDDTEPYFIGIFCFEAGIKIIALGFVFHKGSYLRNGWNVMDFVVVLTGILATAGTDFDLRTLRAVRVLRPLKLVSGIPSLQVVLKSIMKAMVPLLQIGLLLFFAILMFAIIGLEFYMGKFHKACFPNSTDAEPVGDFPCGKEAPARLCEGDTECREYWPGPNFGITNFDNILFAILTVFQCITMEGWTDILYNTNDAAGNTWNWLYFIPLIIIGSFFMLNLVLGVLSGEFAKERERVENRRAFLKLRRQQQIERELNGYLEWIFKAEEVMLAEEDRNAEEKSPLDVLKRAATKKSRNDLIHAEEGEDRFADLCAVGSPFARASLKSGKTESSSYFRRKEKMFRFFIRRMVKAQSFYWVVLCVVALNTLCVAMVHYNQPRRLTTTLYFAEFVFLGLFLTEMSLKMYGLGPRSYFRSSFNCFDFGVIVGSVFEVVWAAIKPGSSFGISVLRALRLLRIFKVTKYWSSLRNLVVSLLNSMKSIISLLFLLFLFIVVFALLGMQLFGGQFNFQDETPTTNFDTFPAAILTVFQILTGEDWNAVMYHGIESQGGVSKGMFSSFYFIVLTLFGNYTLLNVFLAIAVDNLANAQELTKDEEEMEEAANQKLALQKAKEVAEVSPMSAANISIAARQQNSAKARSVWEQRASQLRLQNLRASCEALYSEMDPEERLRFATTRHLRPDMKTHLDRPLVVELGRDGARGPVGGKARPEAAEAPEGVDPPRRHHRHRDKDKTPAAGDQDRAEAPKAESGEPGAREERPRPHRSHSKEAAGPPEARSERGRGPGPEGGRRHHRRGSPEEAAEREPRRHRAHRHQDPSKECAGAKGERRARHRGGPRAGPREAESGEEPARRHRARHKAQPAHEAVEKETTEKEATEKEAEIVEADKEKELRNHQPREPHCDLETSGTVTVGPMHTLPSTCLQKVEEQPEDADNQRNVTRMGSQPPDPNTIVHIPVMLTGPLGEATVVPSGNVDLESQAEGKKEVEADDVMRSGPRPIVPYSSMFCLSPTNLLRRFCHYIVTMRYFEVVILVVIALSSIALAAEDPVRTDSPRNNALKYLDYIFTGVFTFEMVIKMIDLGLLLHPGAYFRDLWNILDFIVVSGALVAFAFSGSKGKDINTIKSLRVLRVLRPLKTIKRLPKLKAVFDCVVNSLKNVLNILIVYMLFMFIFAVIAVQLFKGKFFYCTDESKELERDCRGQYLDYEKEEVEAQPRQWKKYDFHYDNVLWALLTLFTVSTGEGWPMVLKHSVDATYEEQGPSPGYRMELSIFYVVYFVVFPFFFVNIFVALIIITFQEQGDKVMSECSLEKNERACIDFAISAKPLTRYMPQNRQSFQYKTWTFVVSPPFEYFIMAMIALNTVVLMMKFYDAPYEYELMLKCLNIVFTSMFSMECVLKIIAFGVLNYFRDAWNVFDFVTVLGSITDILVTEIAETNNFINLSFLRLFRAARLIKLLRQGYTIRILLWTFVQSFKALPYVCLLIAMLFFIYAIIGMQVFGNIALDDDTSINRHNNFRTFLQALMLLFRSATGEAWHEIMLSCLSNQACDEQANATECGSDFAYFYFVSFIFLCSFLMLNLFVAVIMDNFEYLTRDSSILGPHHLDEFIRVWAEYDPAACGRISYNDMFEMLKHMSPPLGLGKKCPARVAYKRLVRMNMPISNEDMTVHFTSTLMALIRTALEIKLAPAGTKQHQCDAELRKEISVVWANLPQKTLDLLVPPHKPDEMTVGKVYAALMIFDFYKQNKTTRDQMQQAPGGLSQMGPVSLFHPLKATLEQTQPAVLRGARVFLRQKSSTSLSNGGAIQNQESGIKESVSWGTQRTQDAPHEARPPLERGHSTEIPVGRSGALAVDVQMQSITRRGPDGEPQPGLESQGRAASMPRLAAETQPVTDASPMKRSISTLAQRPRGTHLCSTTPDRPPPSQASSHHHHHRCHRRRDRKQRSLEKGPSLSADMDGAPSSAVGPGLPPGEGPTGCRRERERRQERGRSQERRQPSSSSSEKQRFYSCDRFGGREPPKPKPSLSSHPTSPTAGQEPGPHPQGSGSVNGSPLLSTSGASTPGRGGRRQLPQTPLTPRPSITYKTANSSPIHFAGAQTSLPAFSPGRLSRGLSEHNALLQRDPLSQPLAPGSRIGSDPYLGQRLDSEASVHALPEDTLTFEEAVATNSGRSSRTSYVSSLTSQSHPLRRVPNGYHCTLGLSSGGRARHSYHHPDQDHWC

[5] = system: HEK293; test: Selectivity for T-type and N-type [Ca2+] channels expressed in HEK293 cells at 10 uM; settings: Homo sapiens
[6] = target: Voltage-dependent N-type calcium channel subunit alpha-1B (Homo sapiens) (UniProt Q00975); test: Percent inhibition of N-type [Ca2+] channel (Alpha-1B) expressed in HEK293 cells at 10 uM; No blocking

T1 sequence (O43497 whole entry): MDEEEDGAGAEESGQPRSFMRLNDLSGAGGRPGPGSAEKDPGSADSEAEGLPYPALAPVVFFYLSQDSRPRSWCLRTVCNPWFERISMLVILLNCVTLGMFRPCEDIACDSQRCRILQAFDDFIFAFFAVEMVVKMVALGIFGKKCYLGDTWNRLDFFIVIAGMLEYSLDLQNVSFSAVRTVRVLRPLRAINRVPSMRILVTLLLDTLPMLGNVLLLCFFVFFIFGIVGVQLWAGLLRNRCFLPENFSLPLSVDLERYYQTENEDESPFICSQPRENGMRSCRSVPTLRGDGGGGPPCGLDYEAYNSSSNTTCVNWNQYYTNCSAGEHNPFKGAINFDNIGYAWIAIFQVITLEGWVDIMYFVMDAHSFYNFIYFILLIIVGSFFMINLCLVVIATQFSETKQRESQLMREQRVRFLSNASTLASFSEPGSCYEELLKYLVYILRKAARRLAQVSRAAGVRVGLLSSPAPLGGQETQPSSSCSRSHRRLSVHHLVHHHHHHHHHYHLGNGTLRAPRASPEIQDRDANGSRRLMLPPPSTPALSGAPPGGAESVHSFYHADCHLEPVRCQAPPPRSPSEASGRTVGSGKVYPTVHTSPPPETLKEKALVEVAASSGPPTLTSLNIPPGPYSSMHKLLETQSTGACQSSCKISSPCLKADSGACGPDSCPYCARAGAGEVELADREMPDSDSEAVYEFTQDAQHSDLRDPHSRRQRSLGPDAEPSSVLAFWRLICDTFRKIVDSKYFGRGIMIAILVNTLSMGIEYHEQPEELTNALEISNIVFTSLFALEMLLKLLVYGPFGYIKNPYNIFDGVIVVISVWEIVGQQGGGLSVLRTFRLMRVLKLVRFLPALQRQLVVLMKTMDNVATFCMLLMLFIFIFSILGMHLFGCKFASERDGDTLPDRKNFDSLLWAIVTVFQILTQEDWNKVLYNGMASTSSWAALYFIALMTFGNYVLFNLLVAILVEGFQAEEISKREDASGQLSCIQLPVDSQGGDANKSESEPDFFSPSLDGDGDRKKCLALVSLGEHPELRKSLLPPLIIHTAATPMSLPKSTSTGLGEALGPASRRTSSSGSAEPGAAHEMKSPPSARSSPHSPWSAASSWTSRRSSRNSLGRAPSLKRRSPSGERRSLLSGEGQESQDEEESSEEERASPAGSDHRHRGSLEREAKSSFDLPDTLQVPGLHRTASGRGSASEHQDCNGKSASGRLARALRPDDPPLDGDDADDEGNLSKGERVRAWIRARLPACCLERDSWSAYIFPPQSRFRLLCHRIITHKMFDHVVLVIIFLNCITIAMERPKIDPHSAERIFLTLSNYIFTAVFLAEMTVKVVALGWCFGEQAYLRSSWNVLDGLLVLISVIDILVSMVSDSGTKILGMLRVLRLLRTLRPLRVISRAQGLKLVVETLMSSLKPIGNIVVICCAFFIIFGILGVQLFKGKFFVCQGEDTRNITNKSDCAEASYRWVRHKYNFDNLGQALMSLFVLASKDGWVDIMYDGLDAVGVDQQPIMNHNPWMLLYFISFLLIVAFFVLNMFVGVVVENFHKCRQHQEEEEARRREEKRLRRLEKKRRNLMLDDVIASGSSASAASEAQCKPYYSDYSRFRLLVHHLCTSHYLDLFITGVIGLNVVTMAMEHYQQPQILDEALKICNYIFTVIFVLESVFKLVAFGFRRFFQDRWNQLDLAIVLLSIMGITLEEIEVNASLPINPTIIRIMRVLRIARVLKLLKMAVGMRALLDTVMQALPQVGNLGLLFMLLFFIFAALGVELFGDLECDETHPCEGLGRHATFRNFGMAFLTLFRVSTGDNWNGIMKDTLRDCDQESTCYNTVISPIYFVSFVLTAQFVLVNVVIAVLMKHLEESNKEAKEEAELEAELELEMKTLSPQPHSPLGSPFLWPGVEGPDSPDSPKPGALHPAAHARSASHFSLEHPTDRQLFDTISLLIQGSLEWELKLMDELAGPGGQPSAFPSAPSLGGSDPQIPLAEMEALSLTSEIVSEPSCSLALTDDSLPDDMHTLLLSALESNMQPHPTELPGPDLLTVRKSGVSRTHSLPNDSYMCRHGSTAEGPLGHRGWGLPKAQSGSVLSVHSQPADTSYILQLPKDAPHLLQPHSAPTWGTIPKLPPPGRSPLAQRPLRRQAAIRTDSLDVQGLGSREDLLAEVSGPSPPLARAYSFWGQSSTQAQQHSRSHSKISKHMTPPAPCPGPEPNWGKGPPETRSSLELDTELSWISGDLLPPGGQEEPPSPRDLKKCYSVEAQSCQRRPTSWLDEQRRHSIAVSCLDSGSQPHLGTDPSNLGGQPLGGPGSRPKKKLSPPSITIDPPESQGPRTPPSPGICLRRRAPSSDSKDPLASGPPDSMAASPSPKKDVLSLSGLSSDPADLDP

Row | Structure (SMILES) | inhibition [1] [%] | pIC50 [2] | inhibition [3] [%] | inhibition [4] [%] | Selectivity [5] | inhibition [6] [%]
1 | COC(=O)CC1c2ccccc2N=C(NCCCCCNC(=O)OC(C)(C)C)N1c1ccc(-c2ccccc2)cc1 (configuration not stated) | 86.5 | 6.17 | 92.2 | 98.6 | 0.9 | 
2 | O=C(CC1c2ccccc2N=C(N2CCCCC2)N1c1ccccc1)NCc1ccccc1 (configuration not stated) |  | 5.94 |  |  |  | 
3 | CC(C)(C)OC(=O)NCCCCCNC1=Nc2ccccc2C(CC(=O)NCc2ccccc2)N1c1ccc(-c2ccccc2)cc1 (configuration not stated) | 88.3 | 6.80 | 84.2 | 16.6 | 5.3 | 
4 | O=C(CC1c2ccccc2N=C(N2CCCCC2)N1c1ccccc1)NCc1ccc(NS(=O)(=O)c2ccc(F)cc2)cc1 (configuration not stated) |  | 6.96 |  |  |  | 
5 | COC(=O)CC1c2ccccc2N=C(Nc2ccc(-c3ccccc3)cc2)N1CCCCCNC(=O)OC(C)(C)C (configuration not stated) | 88.5 | 6.43 | 96.5 | 94.9 | 0.9 | 
6 | COC(=O)CC1c2ccccc2N=C(Nc2ccc(-c3ccccc3)cc2)N1CCCCCN (configuration not stated) | 84.1 | 6.52 | 94.6 | 7.5 | 11.2 | 
7 | CC(C)(C)OC(=O)NCCCCCN1C(Nc2ccc(-c3ccccc3)cc2)=Nc2ccccc2C1CC(=O)NCc1ccccc1 (configuration not stated) | 88.5 | 6.77 | 91.2 | 30.1 | 2.9 | 
8 | NCCCCCN1C(Nc2ccc(-c3ccccc3)cc2)=Nc2ccccc2C1CC(=O)NCc1ccccc1 (configuration not stated) | 91.8 | 6.85 | 97 | 15.2 | 6 | 
9 | Cc1ccc(S(=O)(=O)Nc2ccc(CNC(=O)CC3c4ccccc4N=C(N4CCCCC4)N3c3ccccc3)cc2)cc1 (configuration not stated) |  | 6.77 |  |  |  | 
10 | COC(=O)CC1c2ccccc2N=C(NCCCCCN)N1c1ccc(-c2ccccc2)cc1 (configuration not stated) | 82.5 |  | 97 |  |  | < 1
11 | COCC(=O)O[C@]1(CCN(C)CCCc2nc3ccccc3[nH]2)CCc2cc(F)ccc2[C@@H]1C(C)C |  |  |  | 67.6 |  | 
12 | NCCCCCNC1=Nc2ccccc2C(CC(=O)NCc2ccccc2)N1c1ccc(-c2ccccc2)cc1 (configuration not stated) | 83.8 | 6.89 | 80.1 | 8.3 | 10.1 | 
